Consider one molecule from patent US20190011433A1, “CELL CO-CULTURE SYSTEMS AND USES THEREOF” (Dana-Farber Cancer Institute, Inc., priority 2007, published 2019).

SMILES strings stand for the structures. “Also recorded” adds a separate entry of the source.

In experiment [1] the test system is KU812F-luc leukemia cells. As to the kind of experiment: CS-BLI drug sensitivity of KU812F-luc leukemia cells in presence vs absence of HS-5 BMSCs. It counts as cell-based. The settings on record: presence vs absence of HS-5 BMSCs (10,000 per well). The source says: In another set of experiments, Applicants tested and observed similar protective/sensitization effect of stroma cell on KU812F-luc cells on various drugs (data not shown).
(§1) Applicants expanded the application of in vitro compartment-specific bioluminescence imaging assays beyond the MM cells to other tumor models, namely a few leukemic cell lines. Applicants specifically tested luciferase-expressing K562-luc-neo and KU812F-luc-neo leukemic cells against standard anti-leukemia agents, including AraC and Doxo, in the presence vs. absence of HS-5 stromal cells (FIG. 7A and FIG. 7B).

In the next experiment the test system is A375-luc-neo cells. As to the kind of experiment: CS-BLI drug sensitivity of A375-luc-neo cells alone or with HS-5 BMSCs. The class given is cell-based. The settings on record: A375-luc-neo alone or with HS-5 BMSCs (10,000/well), 48 hrs. The procedure: (§2) MDA-MB-231met-luc-neo (FIG. 18A, FIG. 18B), A375-luc-neo (FIG. 18C, FIG. 18D) and FRO-luc-neo (FIG. 18E, FIG. 18F) cells were plated either alone or mixed with HS-5 BMSCs (10,000 /well) and treated the following day. The cultures of tumor cells and their co-cultures with BMSCs were incubated for an additional 48 hrs.

In experiment [2] the test system is MDA-MB-231met-luc-neo cells. As to the kind of experiment: CS-BLI drug sensitivity of MDA-MB-231met-luc-neo cells alone or with HS-5 BMSCs. The class given is cell-based. The settings on record: MDA-MB-231met-luc-neo alone or with HS-5 BMSCs (10,000/well), 48 hrs. As to the method:
as §2

A further experiment has as its system FRO-luc-neo cells. As to the kind of experiment: CS-BLI drug sensitivity of FRO-luc-neo cells alone or with HS-5 BMSCs. It counts as cell-based. The settings on record: FRO-luc-neo alone or with HS-5 BMSCs (10,000/well), 48 hrs. As to the method:
as §2

The next experiment concerns K562-luc leukemia cells. As to the kind of experiment: CS-BLI drug sensitivity of K562-luc leukemia cells in presence vs absence of HS-5 BMSCs. It counts as cell-based. Particulars: presence vs absence of HS-5 BMSCs (10,000 per well).
Description: as §1

The subject of experiment [3] is MM-1S-GFP-luc myeloma cells. As to the kind of experiment: CS-BLI drug sensitivity of MM-1S-GFP-luc cells in presence vs absence of stromal cells. It counts as cell-based, human. The procedure:
Luciferin (7.5 mg/mL; Xenogen Corp, Alameda, Calif.) was added at the volume stated in each experiment. Cell viability and the precise cell counts were established by Trypan blue exclusion assay immediately before plating of the cells. Compartment-specific bioluminescence emitted by individual wells of these plates was measured with two different bioluminescence imaging modalities, namely a Xenogen IVIS® Imaging System (FIG. 1A and FIG. 1B) and a standard luminometer plate reader—Luminoskan luminometer (Labsystems, MA) (FIG. 1C). The results with each method were analyzed for the linearity of the bioluminescent signal vs. cell number using the Living Image® software (Xenogen Corp, Alameda Calif.).

The test system of experiment [4] is MM-1S-GFP-luc myeloma cells. The experiment is described as follows: Flow cytometry (Apo2.7) drug sensitivity testing in tumor-stromal co-culture. The settings on record: Doxo 250 ng/mL, 48 hrs. The class given is cell-based, human. As to the method:
Applicants also evaluated the anti-tumor effects of these drugs in the presence of stromal cells, and compared the results obtained with in vitro compartment-specific bioluminescence vs. flow cytometric evaluation of drug-induced cell death. Specifically, luciferase-expressing MM cells were treated in vitro with Doxo (250 ng/mL) or vehicle, in the absence vs. presence of bone marrow stromal cells (BMSCs). For flow cytometry-based drug sensitivity testing in tumor-stromal co-culture, tumor cell viability in the presence vs. absence of stromal cells was evaluated by flow cytometry. Specifically, after incubation with drug or vehicle, MM-1S-GFP-luc myeloma cells were stained with Apo2.7 (BD Biosciences) to detect apoptotic cells. GFP positive myeloma cells were gated to distinguish them from GFP negative stromal cells in the co-cultures. The ratio of Apo2.7 positive cells in the GFP^+ compartment of the drug-treated condition vs. the vehicle-treated condition provided a quantified expression of viable cells in response to drug treatment. […] These flow cytometric results were consistent with results obtained with CS-BLI based applications as described in Example III.

Experiment [5] relates to MM-1R-GFP-luc myeloma cells. As to the kind of experiment: CS-BLI drug sensitivity of MM-1R-GFP-luc cells in presence vs absence of stromal cells. Particulars: MM-1R-GFP-luc (Dex-resistant), presence vs absence of HS-5 BMSCs (10,000 per well).

For the molecule `COc1cccc2c1C(=O)c1c(O)c3c(c(O)c1C2=O)C[C@@](O)(C(=O)CO)C[C@@H]3O[C@H]1C[C@H](N)[C@H](O)[C@H](C)O1` [Doxo, Doxorubicin], the “effect of BMSC co-culture on tumor cell response to drug (protection)” value in experiment [1] was “did not affect their response”; with A375-luc-neo cells, “no protection”; in experiment [2], “modest protection”; in the experiment on FRO-luc-neo cells, “modest protection”; in the experiment with K562-luc leukemia cells, “do not confer protection”; in experiment [3] (presence vs absence of HS-5 BMSCs (10,000 per well)) it was “attenuated the responses; also recorded: conferred protection; also recorded: confer protection”. The “effect of BMSC co-culture on tumor cell response to drug (protection)” value in experiment [3] (presence vs absence of KM101, KM103, KM104, KM105 BMSC lines, Doxo 0-250 ng/mL) is reported as “protective effects; also recorded: conferred protection”; in experiment [5], “attenuated the responses; also recorded: confer protection”. The “Apo2.7 expression in GFP+ myeloma cells, co-culture with HS-5 vs absence of stroma” value in experiment [4] is on record as “decreased expression of Apo2.7”.
